Patent US9113629B2, “4-amino-6-(4-substituted-phenyl)-picolinates and 6-amino-2-(4-substituted-phenyl)-pyrimidine-4-carboxylates and their use as herbicides” (DOW AGROSCIENCES LLC, priority 2013, dated 2015)

Each compound was assayed on CIRAR: Canada thistle (Cirsium arvense) (assay: Post-emergent Test III, herbicidal activity in wheat and barley). Conditions: Cirsium arvense, post-emergence, 504 h; Table 8; 35 g ai/ha; post-emergent; 21 d; read-out: Visual Growth Reduction (%) 21 Days After Application CIRAR.
Format: in vivo
Outline: (§1)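 GR20, GR50, GR80 and GR90 come from probit analysis of visual injury scores (0 = none, 100 = complete kill) taken 21 d after treatment. Foliar application was by track sprayer delivering 187 L/ha at five rates, from high down to 1/16×, onto greenhouse plants at the 2–3 leaf stage, with solvent-blank controls.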

SMILES	pest or weed control at 35 g/ha [%]
COC(=O)c1nc(-c2ccc(C#N)c(F)c2)c(F)c(N)c1Cl [Compound 135, methyl 4-amino-3-chloro-6-(4-cyano-3-fluorophenyl)-5-fluoropicolinate]	85 to 94
Nc1c(Cl)c(C(=O)O)nc(-c2ccc(I)c(F)c2)c1Cl [Compound 145, 4-Amino-3,5-dichloro-6-(3-fluoro-4-iodophenyl)picolinic acid]	95 to 100
COC(=O)c1nc(-c2ccc(Br)c(F)c2)nc(N)c1OC [Compound 171, Methyl 6-amino-2-(4-bromo-3-fluorophenyl)-5-methoxypyrimidine-4-carboxylate]	60 to 74

Same assay, conditions: Cirsium arvense, post-emergence, 504 h; Table 8; 70 g ai/ha; post-emergent; 21 d; read-out: Visual Growth Reduction (%) 21 Days After Application CIRAR

SMILES	pest or weed control at 70 g/ha [%]
COC(=O)c1nc(-c2ccc(C#N)c(F)c2)c(F)c(N)c1Cl [Compound 135, methyl 4-amino-3-chloro-6-(4-cyano-3-fluorophenyl)-5-fluoropicolinate]	85 to 94
Nc1c(Cl)c(C(=O)O)nc(-c2ccc(I)c(F)c2)c1Cl [Compound 145, 4-Amino-3,5-dichloro-6-(3-fluoro-4-iodophenyl)picolinic acid]	85 to 94
COC(=O)c1nc(-c2ccc(Br)c(F)c2)nc(N)c1OC [Compound 171, Methyl 6-amino-2-(4-bromo-3-fluorophenyl)-5-methoxypyrimidine-4-carboxylate]	60 to 74

Same assay, conditions: Cirsium arvense, post-emergence, 504 h; Table 8; 140 g ai/ha; post-emergent; 21 d; read-out: Visual Growth Reduction (%) 21 Days After Application CIRAR

SMILES	pest or weed control at 140 g/ha [%]
COC(=O)c1nc(-c2ccc(C#N)c(F)c2)c(F)c(N)c1Cl [Compound 135, methyl 4-amino-3-chloro-6-(4-cyano-3-fluorophenyl)-5-fluoropicolinate]	85 to 94
Nc1c(Cl)c(C(=O)O)nc(-c2ccc(I)c(F)c2)c1Cl [Compound 145, 4-Amino-3,5-dichloro-6-(3-fluoro-4-iodophenyl)picolinic acid]	95 to 100

Same assay, conditions: Table 8; dose for 50 percent growth reduction, probit analysis; 21 d

SMILES	GR50 CIRAR [g ai/ha]
COC(=O)c1nc(-c2ccc(C#N)c(F)c2)c(F)c(N)c1Cl [Compound 135, methyl 4-amino-3-chloro-6-(4-cyano-3-fluorophenyl)-5-fluoropicolinate]	1
Nc1c(Cl)c(C(=O)O)nc(-c2ccc(I)c(F)c2)c1Cl [Compound 145, 4-Amino-3,5-dichloro-6-(3-fluoro-4-iodophenyl)picolinic acid]	2
COC(=O)c1nc(-c2ccc(Br)c(F)c2)nc(N)c1OC [Compound 171, Methyl 6-amino-2-(4-bromo-3-fluorophenyl)-5-methoxypyrimidine-4-carboxylate]	17

Same assay, conditions: Table 8; dose for 80 percent growth reduction, probit analysis; 21 d

SMILES	GR80 CIRAR [g ai/ha]
COC(=O)c1nc(-c2ccc(C#N)c(F)c2)c(F)c(N)c1Cl [Compound 135, methyl 4-amino-3-chloro-6-(4-cyano-3-fluorophenyl)-5-fluoropicolinate]	13
Nc1c(Cl)c(C(=O)O)nc(-c2ccc(I)c(F)c2)c1Cl [Compound 145, 4-Amino-3,5-dichloro-6-(3-fluoro-4-iodophenyl)picolinic acid]	7
COC(=O)c1nc(-c2ccc(Br)c(F)c2)nc(N)c1OC [Compound 171, Methyl 6-amino-2-(4-bromo-3-fluorophenyl)-5-methoxypyrimidine-4-carboxylate]	80

The compounds below were run on GALAP: cleavers (Galium aparine) in the same assay as above. Conditions: Galium aparine, post-emergence, 504 h; Table 8; 35 g ai/ha; post-emergent; 21 d; read-out: Visual Growth Reduction (%) 21 Days After Application GALAP.
Format: in vivo
Outline: as §1

SMILES	pest or weed control at 35 g/ha [%]
COC(=O)c1nc(-c2ccc(C#N)c(F)c2)c(F)c(N)c1Cl [Compound 135, methyl 4-amino-3-chloro-6-(4-cyano-3-fluorophenyl)-5-fluoropicolinate]	60 to 74
Nc1c(Cl)c(C(=O)O)nc(-c2ccc(I)c(F)c2)c1Cl [Compound 145, 4-Amino-3,5-dichloro-6-(3-fluoro-4-iodophenyl)picolinic acid]	45 to 59
COC(=O)c1nc(-c2ccc(Br)c(F)c2)nc(N)c1OC [Compound 171, Methyl 6-amino-2-(4-bromo-3-fluorophenyl)-5-methoxypyrimidine-4-carboxylate]	85 to 94

Same assay, conditions: Galium aparine, post-emergence, 504 h; Table 8; 70 g ai/ha; post-emergent; 21 d; read-out: Visual Growth Reduction (%) 21 Days After Application GALAP

SMILES	pest or weed control at 70 g/ha [%]
COC(=O)c1nc(-c2ccc(C#N)c(F)c2)c(F)c(N)c1Cl [Compound 135, methyl 4-amino-3-chloro-6-(4-cyano-3-fluorophenyl)-5-fluoropicolinate]	95 to 100
Nc1c(Cl)c(C(=O)O)nc(-c2ccc(I)c(F)c2)c1Cl [Compound 145, 4-Amino-3,5-dichloro-6-(3-fluoro-4-iodophenyl)picolinic acid]	75 to 84
COC(=O)c1nc(-c2ccc(Br)c(F)c2)nc(N)c1OC [Compound 171, Methyl 6-amino-2-(4-bromo-3-fluorophenyl)-5-methoxypyrimidine-4-carboxylate]	95 to 100

Same assay, conditions: Galium aparine, post-emergence, 504 h; Table 8; 140 g ai/ha; post-emergent; 21 d; read-out: Visual Growth Reduction (%) 21 Days After Application GALAP

SMILES	pest or weed control at 140 g/ha [%]
COC(=O)c1nc(-c2ccc(C#N)c(F)c2)c(F)c(N)c1Cl [Compound 135, methyl 4-amino-3-chloro-6-(4-cyano-3-fluorophenyl)-5-fluoropicolinate]	95 to 100
Nc1c(Cl)c(C(=O)O)nc(-c2ccc(I)c(F)c2)c1Cl [Compound 145, 4-Amino-3,5-dichloro-6-(3-fluoro-4-iodophenyl)picolinic acid]	95 to 100

Same assay, conditions: Table 8; dose for 50 percent growth reduction, probit analysis; 21 d

SMILES	GR50 GALAP [g ai/ha]
COC(=O)c1nc(-c2ccc(C#N)c(F)c2)c(F)c(N)c1Cl [Compound 135, methyl 4-amino-3-chloro-6-(4-cyano-3-fluorophenyl)-5-fluoropicolinate]	12
Nc1c(Cl)c(C(=O)O)nc(-c2ccc(I)c(F)c2)c1Cl [Compound 145, 4-Amino-3,5-dichloro-6-(3-fluoro-4-iodophenyl)picolinic acid]	18

Same assay, conditions: Table 8; dose for 80 percent growth reduction, probit analysis; 21 d

SMILES	GR80 GALAP [g ai/ha]
COC(=O)c1nc(-c2ccc(C#N)c(F)c2)c(F)c(N)c1Cl [Compound 135, methyl 4-amino-3-chloro-6-(4-cyano-3-fluorophenyl)-5-fluoropicolinate]	38
Nc1c(Cl)c(C(=O)O)nc(-c2ccc(I)c(F)c2)c1Cl [Compound 145, 4-Amino-3,5-dichloro-6-(3-fluoro-4-iodophenyl)picolinic acid]	54
COC(=O)c1nc(-c2ccc(Br)c(F)c2)nc(N)c1OC [Compound 171, Methyl 6-amino-2-(4-bromo-3-fluorophenyl)-5-methoxypyrimidine-4-carboxylate]	23

What follows are compounds tested on SASKR: Russian thistle (Salsola iberica) in the same assay as above. Conditions: Salsola tragus, post-emergence, 504 h; Table 8; 35 g ai/ha; post-emergent; 21 d; read-out: Visual Growth Reduction (%) 21 Days After Application SASKR.
Format: in vivo
Outline: as §1

SMILES	pest or weed control at 35 g/ha [%]
COC(=O)c1nc(-c2ccc(C#N)c(F)c2)c(F)c(N)c1Cl [Compound 135, methyl 4-amino-3-chloro-6-(4-cyano-3-fluorophenyl)-5-fluoropicolinate]	60 to 74
Nc1c(Cl)c(C(=O)O)nc(-c2ccc(I)c(F)c2)c1Cl [Compound 145, 4-Amino-3,5-dichloro-6-(3-fluoro-4-iodophenyl)picolinic acid]	60 to 74
COC(=O)c1nc(-c2ccc(Br)c(F)c2)nc(N)c1OC [Compound 171, Methyl 6-amino-2-(4-bromo-3-fluorophenyl)-5-methoxypyrimidine-4-carboxylate]	60 to 74

Same assay, conditions: Salsola tragus, post-emergence, 504 h; Table 8; 70 g ai/ha; post-emergent; 21 d; read-out: Visual Growth Reduction (%) 21 Days After Application SASKR

SMILES	pest or weed control at 70 g/ha [%]
COC(=O)c1nc(-c2ccc(C#N)c(F)c2)c(F)c(N)c1Cl [Compound 135, methyl 4-amino-3-chloro-6-(4-cyano-3-fluorophenyl)-5-fluoropicolinate]	60 to 74
Nc1c(Cl)c(C(=O)O)nc(-c2ccc(I)c(F)c2)c1Cl [Compound 145, 4-Amino-3,5-dichloro-6-(3-fluoro-4-iodophenyl)picolinic acid]	75 to 84
COC(=O)c1nc(-c2ccc(Br)c(F)c2)nc(N)c1OC [Compound 171, Methyl 6-amino-2-(4-bromo-3-fluorophenyl)-5-methoxypyrimidine-4-carboxylate]	75 to 84

Same assay, conditions: Salsola tragus, post-emergence, 504 h; Table 8; 140 g ai/ha; post-emergent; 21 d; read-out: Visual Growth Reduction (%) 21 Days After Application SASKR

SMILES	pest or weed control at 140 g/ha [%]
COC(=O)c1nc(-c2ccc(C#N)c(F)c2)c(F)c(N)c1Cl [Compound 135, methyl 4-amino-3-chloro-6-(4-cyano-3-fluorophenyl)-5-fluoropicolinate]	75 to 84
Nc1c(Cl)c(C(=O)O)nc(-c2ccc(I)c(F)c2)c1Cl [Compound 145, 4-Amino-3,5-dichloro-6-(3-fluoro-4-iodophenyl)picolinic acid]	85 to 94

Same assay, conditions: Table 8; dose for 50 percent growth reduction, probit analysis; 21 d

SMILES	GR50 SASKR [g ai/ha]
COC(=O)c1nc(-c2ccc(C#N)c(F)c2)c(F)c(N)c1Cl [Compound 135, methyl 4-amino-3-chloro-6-(4-cyano-3-fluorophenyl)-5-fluoropicolinate]	3
COC(=O)c1nc(-c2ccc(Br)c(F)c2)nc(N)c1OC [Compound 171, Methyl 6-amino-2-(4-bromo-3-fluorophenyl)-5-methoxypyrimidine-4-carboxylate]	21

Same assay, conditions: Table 8; dose for 80 percent growth reduction, probit analysis; 21 d

SMILES	GR80 SASKR [g ai/ha]
COC(=O)c1nc(-c2ccc(C#N)c(F)c2)c(F)c(N)c1Cl [Compound 135, methyl 4-amino-3-chloro-6-(4-cyano-3-fluorophenyl)-5-fluoropicolinate]	>140
Nc1c(Cl)c(C(=O)O)nc(-c2ccc(I)c(F)c2)c1Cl [Compound 145, 4-Amino-3,5-dichloro-6-(3-fluoro-4-iodophenyl)picolinic acid]	79
COC(=O)c1nc(-c2ccc(Br)c(F)c2)nc(N)c1OC [Compound 171, Methyl 6-amino-2-(4-bromo-3-fluorophenyl)-5-methoxypyrimidine-4-carboxylate]	67

Each compound was assayed on VIOSS: wild pansy (Viola tricolor), field violet (Viola arvensis) in the same assay as above. Conditions: Table 8; dose for 50 percent growth reduction, probit analysis; 21 d.
Format: in vivo
Outline: as §1

SMILES	GR50 VIOSS [g ai/ha]
COC(=O)c1nc(-c2ccc(C#N)c(F)c2)c(F)c(N)c1Cl [Compound 135, methyl 4-amino-3-chloro-6-(4-cyano-3-fluorophenyl)-5-fluoropicolinate]	23
Nc1c(Cl)c(C(=O)O)nc(-c2ccc(I)c(F)c2)c1Cl [Compound 145, 4-Amino-3,5-dichloro-6-(3-fluoro-4-iodophenyl)picolinic acid]	>140
COC(=O)c1nc(-c2ccc(Br)c(F)c2)nc(N)c1OC [Compound 171, Methyl 6-amino-2-(4-bromo-3-fluorophenyl)-5-methoxypyrimidine-4-carboxylate]	5

Same assay, conditions: Table 8; dose for 80 percent growth reduction, probit analysis; 21 d

SMILES	GR80 VIOSS [g ai/ha]
COC(=O)c1nc(-c2ccc(C#N)c(F)c2)c(F)c(N)c1Cl [Compound 135, methyl 4-amino-3-chloro-6-(4-cyano-3-fluorophenyl)-5-fluoropicolinate]	>140
Nc1c(Cl)c(C(=O)O)nc(-c2ccc(I)c(F)c2)c1Cl [Compound 145, 4-Amino-3,5-dichloro-6-(3-fluoro-4-iodophenyl)picolinic acid]	>140
COC(=O)c1nc(-c2ccc(Br)c(F)c2)nc(N)c1OC [Compound 171, Methyl 6-amino-2-(4-bromo-3-fluorophenyl)-5-methoxypyrimidine-4-carboxylate]	10

Same assay, conditions: Viola tricolor, post-emergence, 504 h; Table 8; 35 g ai/ha; post-emergent; 21 d; read-out: Visual Growth Reduction (%) 21 Days After Application VIOSS

SMILES	pest or weed control at 35 g/ha [%]
COC(=O)c1nc(-c2ccc(C#N)c(F)c2)c(F)c(N)c1Cl [Compound 135, methyl 4-amino-3-chloro-6-(4-cyano-3-fluorophenyl)-5-fluoropicolinate]	60 to 74
Nc1c(Cl)c(C(=O)O)nc(-c2ccc(I)c(F)c2)c1Cl [Compound 145, 4-Amino-3,5-dichloro-6-(3-fluoro-4-iodophenyl)picolinic acid]	0 to 29
COC(=O)c1nc(-c2ccc(Br)c(F)c2)nc(N)c1OC [Compound 171, Methyl 6-amino-2-(4-bromo-3-fluorophenyl)-5-methoxypyrimidine-4-carboxylate]	95 to 100

Same assay, conditions: Viola tricolor, post-emergence, 504 h; Table 8; 70 g ai/ha; post-emergent; 21 d; read-out: Visual Growth Reduction (%) 21 Days After Application VIOSS

SMILES	pest or weed control at 70 g/ha [%]
COC(=O)c1nc(-c2ccc(C#N)c(F)c2)c(F)c(N)c1Cl [Compound 135, methyl 4-amino-3-chloro-6-(4-cyano-3-fluorophenyl)-5-fluoropicolinate]	60 to 74
Nc1c(Cl)c(C(=O)O)nc(-c2ccc(I)c(F)c2)c1Cl [Compound 145, 4-Amino-3,5-dichloro-6-(3-fluoro-4-iodophenyl)picolinic acid]	0 to 29
COC(=O)c1nc(-c2ccc(Br)c(F)c2)nc(N)c1OC [Compound 171, Methyl 6-amino-2-(4-bromo-3-fluorophenyl)-5-methoxypyrimidine-4-carboxylate]	95 to 100

Same assay, conditions: Viola tricolor, post-emergence, 504 h; Table 8; 140 g ai/ha; post-emergent; 21 d; read-out: Visual Growth Reduction (%) 21 Days After Application VIOSS

SMILES	pest or weed control at 140 g/ha [%]
COC(=O)c1nc(-c2ccc(C#N)c(F)c2)c(F)c(N)c1Cl [Compound 135, methyl 4-amino-3-chloro-6-(4-cyano-3-fluorophenyl)-5-fluoropicolinate]	75 to 84
Nc1c(Cl)c(C(=O)O)nc(-c2ccc(I)c(F)c2)c1Cl [Compound 145, 4-Amino-3,5-dichloro-6-(3-fluoro-4-iodophenyl)picolinic acid]	30 to 44
